Publication PMC4631641 (The Journal of nutritional biochemistry, 2015)

Target: T1, holocarboxylase synthetase (HLCS) (Homo sapiens, UniProt P50747)
T1 sequence (P50747 1-726): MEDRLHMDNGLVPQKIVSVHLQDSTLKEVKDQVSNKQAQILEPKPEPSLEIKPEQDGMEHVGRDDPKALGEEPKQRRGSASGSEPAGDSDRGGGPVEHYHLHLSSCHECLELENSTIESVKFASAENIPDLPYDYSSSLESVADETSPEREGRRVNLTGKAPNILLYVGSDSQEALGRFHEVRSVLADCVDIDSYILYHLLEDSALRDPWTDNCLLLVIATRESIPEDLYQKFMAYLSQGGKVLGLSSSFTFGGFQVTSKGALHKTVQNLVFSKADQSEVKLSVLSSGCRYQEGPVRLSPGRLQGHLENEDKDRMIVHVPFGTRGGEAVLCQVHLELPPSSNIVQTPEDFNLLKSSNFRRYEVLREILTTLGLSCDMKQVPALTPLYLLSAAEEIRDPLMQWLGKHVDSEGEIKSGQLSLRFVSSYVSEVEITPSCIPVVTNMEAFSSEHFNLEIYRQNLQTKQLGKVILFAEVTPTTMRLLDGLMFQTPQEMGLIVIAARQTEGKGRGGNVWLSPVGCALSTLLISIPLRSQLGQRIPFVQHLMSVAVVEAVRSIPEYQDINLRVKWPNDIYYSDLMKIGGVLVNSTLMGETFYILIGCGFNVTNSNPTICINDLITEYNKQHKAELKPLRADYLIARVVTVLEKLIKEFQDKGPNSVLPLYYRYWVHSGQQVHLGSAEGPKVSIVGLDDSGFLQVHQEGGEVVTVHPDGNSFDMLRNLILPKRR
Test: gel-based p67 biotinylation assay with purified rHLCS, dose-response
Format: biochemical

SMILES | IC50 [µM]
Oc1cc(O)cc(/C=C/c2ccc(O)c(O)c2)c1 [Piceatannol] | 0.28
Oc1ccc(/C=C/c2cc(O)cc(O)c2)cc1 [Resveratrol] | 3.7 ± 0.0085
OC[C@H]1O[C@@H](Oc2cc(O)cc(/C=C/c3ccc(O)cc3)c2)[C@H](O)[C@@H](O)[C@@H]1O [Piceid] | 21.3 ± 0.014
